US20260021071A1, “SMALL MOLECULE BROAD-SPECTRUM ANTIBIOTICS” (University of Florida Research Foundation, Incorporated, priority 2022, published 2026)

Tested on: E. coli W3110 a TolC::Tn10 inclusive strain
Test: microbe, parasite or virus in culture
Type: cell-based
Details: Escherichia coli, read-out: W3110 IC50 (μM)
In the case of O=C(Nc1ccc([N+](=O)[O-])cc1)NC(C(F)(F)F)C(F)(F)F [Compound 8], the IC50 is reported as 8.89 µM.
Work on O=[N+]([O-])c1c(Nc2ccccc2)cc(Cl)c2nonc12 [Compound 2] yielded an IC50 of 15.2 µM.
In the case of COc1cc(NC(=O)c2cccc(-n3cc(Nc4nnnn4-c4ccccc4)cn3)c2)ccc1N1CCOCC1 [Compound 13], the IC50 is reported as 8.71 µM.
O=C(Nc1ccc(N2CCOCC2)cc1)c1cccc(-n2cc(Nc3nnnn3C3CCCCC3)cn2)c1 [Compound 12] gave an IC50 of 29.1 µM.
For O=C(CCn1cnc2ccccc2c1=O)Nc1cccc(Cl)c1 [Compound 15], the IC50 was 0.873 µM.
N#Cc1ccc(NC(=O)Nc2cccc(Cl)c2)cc1 [Compound 7] gave an IC50 of 3.82 µM.
For Cc1ccc(Nc2nc3nonc3nc2NC(C)C)cc1C [Compound 4], the IC50 was 6.29 µM.
For COc1cccc(CN2CCC3(CC2)NCCc2c3[nH]c3ccccc23)c1 [Compound 17], the IC50 was 47.4 µM.
In the case of O=S(=O)(Nc1nccs1)c1ccc(NC(=S)Nc2ccc(F)cc2)cc1 [Compound 10], the IC50 is reported as 4 µM.
Work on Cc1cc(F)ccc1NC(=S)Nc1ccc(S(=O)(=O)Nc2ncccn2)cc1 [Compound 11] yielded an IC50 of 7.08 µM.
Molecule c1ccc(CNc2ncnc3c2[nH]c2ccccc23)cc1 [Compound 16] has an IC50 of 15.9 µM.
With Cc1c(Nc2nc3nonc3nc2Nc2ccc(F)cc2)c(=O)n(-c2ccccc2)n1C [Compound 5] the IC50 was 3.77 µM.
For O=S(=O)(Nc1nccs1)c1ccc(NC(=S)Nc2ccccc2)cc1 [Compound 9], the IC50 was 3.8 µM.
In the case of CCOC(=O)c1cccc(-n2cc(Nc3nnnn3-c3ccccc3)cn2)c1 [Compound 14], the IC50 is reported as 14.6 µM.
N#Cc1cccc(NC(=O)Nc2cccc(Cl)c2)c1 [Compound 6] gave an IC50 of 5.99 µM.

Tested on: not listed separately
Test: in vitro
Details: human, wild-type HepG2 cells (ATCC)
Work on O=[N+]([O-])c1c(Nc2ccccc2)cc(Cl)c2nonc12 [Compound 2] yielded a CC50 greater than 20 µM.
Molecule O=C(CCn1cnc2ccccc2c1=O)Nc1cccc(Cl)c1 [Compound 15] has a CC50 greater than 24.8 µM.
Work on N#Cc1ccc(NC(=O)Nc2cccc(Cl)c2)cc1 [Compound 7] yielded a CC50 of 23.8 µM.
In the case of Cc1ccc(Nc2nc3nonc3nc2NC(C)C)cc1C [Compound 4], the CC50 is reported as 11.4 µM.
With COc1cccc(CN2CCC3(CC2)NCCc2c3[nH]c3ccccc23)c1 [Compound 17] the CC50 was greater than 24.8 µM.
O=S(=O)(Nc1nccs1)c1ccc(NC(=S)Nc2ccc(F)cc2)cc1 [Compound 10] showed a CC50 greater than 24.8 µM.
In the case of CNc1cc(Cl)c2nonc2c1[N+](=O)[O-] [Compound 3], the CC50 is reported as greater than 25.4 µM.
With Cc1cc(F)ccc1NC(=S)Nc1ccc(S(=O)(=O)Nc2ncccn2)cc1 [Compound 11] the CC50 was greater than 24.8 µM.
c1ccc(CNc2ncnc3c2[nH]c2ccccc23)cc1 [Compound 16] showed a CC50 greater than 24.8 µM.
Molecule Cc1c(Nc2nc3nonc3nc2Nc2ccc(F)cc2)c(=O)n(-c2ccccc2)n1C [Compound 5] has a CC50 of 20.6 µM.
For O=S(=O)(Nc1nccs1)c1ccc(NC(=S)Nc2ccccc2)cc1 [Compound 9], the CC50 was greater than 24.8 µM.
Molecule CCOC(=O)c1cccc(-n2cc(Nc3nnnn3-c3ccccc3)cn2)c1 [Compound 14] has a CC50 greater than 24.8 µM.
With N#Cc1cccc(NC(=O)Nc2cccc(Cl)c2)c1 [Compound 6] the CC50 was 21.1 µM.

Tested on: NRS135 gram-positive S. aureus strain expressing NorA::tetM
Test: microbe, parasite or virus in culture
Type: cell-based
Details: Staphylococcus aureus, NRS135, read-out: NRS135 IC50 (μM)
In the case of O=C(Nc1ccc([N+](=O)[O-])cc1)NC(C(F)(F)F)C(F)(F)F [Compound 8], the IC50 is reported as 18.1 µM.
With O=[N+]([O-])c1c(Nc2ccccc2)cc(Cl)c2nonc12 [Compound 2] the IC50 was 2.47 µM.
COc1cc(NC(=O)c2cccc(-n3cc(Nc4nnnn4-c4ccccc4)cn3)c2)ccc1N1CCOCC1 [Compound 13] gave an IC50 of 15.6 µM.
Work on O=C(Nc1ccc(N2CCOCC2)cc1)c1cccc(-n2cc(Nc3nnnn3C3CCCCC3)cn2)c1 [Compound 12] yielded an IC50 of 38.7 µM.
With O=C(CCn1cnc2ccccc2c1=O)Nc1cccc(Cl)c1 [Compound 15] the IC50 was 47.4 µM.
Molecule N#Cc1ccc(NC(=O)Nc2cccc(Cl)c2)cc1 [Compound 7] has an IC50 of 9.77 µM.
In the case of Cc1ccc(Nc2nc3nonc3nc2NC(C)C)cc1C [Compound 4], the IC50 is reported as 26.5 µM.
Work on COc1cccc(CN2CCC3(CC2)NCCc2c3[nH]c3ccccc23)c1 [Compound 17] yielded an IC50 of no less than 55 µM.
O=S(=O)(Nc1nccs1)c1ccc(NC(=S)Nc2ccc(F)cc2)cc1 [Compound 10] gave an IC50 of 17.5 µM.
Cc1cc(F)ccc1NC(=S)Nc1ccc(S(=O)(=O)Nc2ncccn2)cc1 [Compound 11] gave an IC50 of no less than 55 µM.
c1ccc(CNc2ncnc3c2[nH]c2ccccc23)cc1 [Compound 16] gave an IC50 of no less than 55 µM.
With Cc1c(Nc2nc3nonc3nc2Nc2ccc(F)cc2)c(=O)n(-c2ccccc2)n1C [Compound 5] the IC50 was 9.37 µM.
For O=S(=O)(Nc1nccs1)c1ccc(NC(=S)Nc2ccccc2)cc1 [Compound 9], the IC50 was 21.9 µM.
Work on CCOC(=O)c1cccc(-n2cc(Nc3nnnn3-c3ccccc3)cn2)c1 [Compound 14] yielded an IC50 of 43.6 µM.
For N#Cc1cccc(NC(=O)Nc2cccc(Cl)c2)c1 [Compound 6], the IC50 was 19.8 µM.

Tested on: PAO200 P. aeruginosa bacteria, the MexAB-OprM efflux pump minus strain of PAO1
Test: microbe, parasite or virus in culture
Type: cell-based
Details: Pseudomonas aeruginosa, PAO1, read-out: PAO200 IC50 (μM)
In the case of O=C(Nc1ccc([N+](=O)[O-])cc1)NC(C(F)(F)F)C(F)(F)F [Compound 8], the IC50 is reported as 31.5 µM.
Molecule O=[N+]([O-])c1c(Nc2ccccc2)cc(Cl)c2nonc12 [Compound 2] has an IC50 of 1.3 µM.
COc1cc(NC(=O)c2cccc(-n3cc(Nc4nnnn4-c4ccccc4)cn3)c2)ccc1N1CCOCC1 [Compound 13] showed an IC50 of 13.9 µM.
O=C(Nc1ccc(N2CCOCC2)cc1)c1cccc(-n2cc(Nc3nnnn3C3CCCCC3)cn2)c1 [Compound 12] showed an IC50 of 22.3 µM.
Molecule O=C(CCn1cnc2ccccc2c1=O)Nc1cccc(Cl)c1 [Compound 15] has an IC50 of 2.7 µM.
In the case of N#Cc1ccc(NC(=O)Nc2cccc(Cl)c2)cc1 [Compound 7], the IC50 is reported as 24.7 µM.
Work on Cc1ccc(Nc2nc3nonc3nc2NC(C)C)cc1C [Compound 4] yielded an IC50 of 24.7 µM.
In the case of COc1cccc(CN2CCC3(CC2)NCCc2c3[nH]c3ccccc23)c1 [Compound 17], the IC50 is reported as 39 µM.
Work on O=S(=O)(Nc1nccs1)c1ccc(NC(=S)Nc2ccc(F)cc2)cc1 [Compound 10] yielded an IC50 of 12.5 µM.
Cc1cc(F)ccc1NC(=S)Nc1ccc(S(=O)(=O)Nc2ncccn2)cc1 [Compound 11] showed an IC50 of 28.2 µM.
In the case of c1ccc(CNc2ncnc3c2[nH]c2ccccc23)cc1 [Compound 16], the IC50 is reported as 41.5 µM.
In the case of Cc1c(Nc2nc3nonc3nc2Nc2ccc(F)cc2)c(=O)n(-c2ccccc2)n1C [Compound 5], the IC50 is reported as 39.2 µM.
With O=S(=O)(Nc1nccs1)c1ccc(NC(=S)Nc2ccccc2)cc1 [Compound 9] the IC50 was 12.3 µM.
Work on CCOC(=O)c1cccc(-n2cc(Nc3nnnn3-c3ccccc3)cn2)c1 [Compound 14] yielded an IC50 of 20.5 µM.
N#Cc1cccc(NC(=O)Nc2cccc(Cl)c2)c1 [Compound 6] gave an IC50 of 24.7 µM.

Tested on: PAO1
Test: microbe, parasite or virus in culture
Type: cell-based
Details: Pseudomonas aeruginosa, PAO1, read-out: PAO01 IC50 (μM)
O=C(Nc1ccc([N+](=O)[O-])cc1)NC(C(F)(F)F)C(F)(F)F [Compound 8] gave an IC50 of 39.5 µM.
For O=[N+]([O-])c1c(Nc2ccccc2)cc(Cl)c2nonc12 [Compound 2], the IC50 was 18 µM.
COc1cc(NC(=O)c2cccc(-n3cc(Nc4nnnn4-c4ccccc4)cn3)c2)ccc1N1CCOCC1 [Compound 13] gave an IC50 of 95.7 µM.
Work on O=C(Nc1ccc(N2CCOCC2)cc1)c1cccc(-n2cc(Nc3nnnn3C3CCCCC3)cn2)c1 [Compound 12] yielded an IC50 of 103 µM.
For O=C(CCn1cnc2ccccc2c1=O)Nc1cccc(Cl)c1 [Compound 15], the IC50 was 38.6 µM.
N#Cc1ccc(NC(=O)Nc2cccc(Cl)c2)cc1 [Compound 7] showed an IC50 of no less than 55 µM.
Work on Cc1ccc(Nc2nc3nonc3nc2NC(C)C)cc1C [Compound 4] yielded an IC50 of no less than 55 µM.
Molecule COc1cccc(CN2CCC3(CC2)NCCc2c3[nH]c3ccccc23)c1 [Compound 17] has an IC50 of 28.2 µM.
Molecule O=S(=O)(Nc1nccs1)c1ccc(NC(=S)Nc2ccc(F)cc2)cc1 [Compound 10] has an IC50 of no less than 55 µM.
In the case of Cc1cc(F)ccc1NC(=S)Nc1ccc(S(=O)(=O)Nc2ncccn2)cc1 [Compound 11], the IC50 is reported as no less than 55 µM.
c1ccc(CNc2ncnc3c2[nH]c2ccccc23)cc1 [Compound 16] gave an IC50 of no less than 55 µM.
Molecule Cc1c(Nc2nc3nonc3nc2Nc2ccc(F)cc2)c(=O)n(-c2ccccc2)n1C [Compound 5] has an IC50 of 42 µM.
O=S(=O)(Nc1nccs1)c1ccc(NC(=S)Nc2ccccc2)cc1 [Compound 9] showed an IC50 of no less than 55 µM.
Work on CCOC(=O)c1cccc(-n2cc(Nc3nnnn3-c3ccccc3)cn2)c1 [Compound 14] yielded an IC50 of no less than 55 µM.
Molecule N#Cc1cccc(NC(=O)Nc2cccc(Cl)c2)c1 [Compound 6] has an IC50 of 55 µM.
